Source: patent US20190231785A1, “PHOSPHODIESTERASE INHIBITOR TREATMENT” (Cyrano Therapeutics, Inc., priority 2012, published 2019)
Marks after values point to notes of the source that are not given here.

Tested on: patients with hyposmia
Assay: Olfactometry (DT, RT, ME, H; forced-choice, three-stimuli, stepwise-staircase, four odors), open trial of oral theophylline
Format: in vivo, human
Text: Patients initially reported their sensory dysfunction as either loss of taste (e.g., flavor) and/or smell function. This subjective response was documented by objective psychophysical measurements of olfactory function administered to each patient by use of a forced-choice, three-stimuli, stepwise-staircase technique in a fixed, controlled design (1, 53). Efficacy of this technique and results of testing were previously documented in a double-blind clinical trial (53). Four odors were used; they were pyridine (dead-fish odor), nitrobenzene (bitter-almond odor), thiophene (petroleum-like odor) and amyl acetate (banana-oil odor). Detection thresholds (DT), recognition thresholds (RT) and magnitude estimation (ME) values for each odor were determined as previously described (1, 53). Thresholds were converted into bottle units (BU) as previously described (53) and results reported as M±SEM of correct responses for each odor in each treatment group; ME was reported in % and results calculated to obtain M±SEM for each treatment group for all correct responses using data for the four highest odor concentrations presented (from 10^−2M—an absolute odor concentration).
In addition, each patient graded the hedonic (H) value of each odor presented for these same odor concentrations (from 10^−2M—an absolute odor concentration using a −100-0-+100 scale). […] Results were obtained by calculating the arithmetical sum of each correct recognition response for each odor with respect to its pleasantness, unpleasantness or neutrality. Arithmetic M±SEM were obtained for each treatment group for each odor presented.
After determination of hyposmia, patients were treated in an open label, fixed design, controlled open trial. Patients were given an oral extended release theophylline in divided daily doses taken in the middle of breakfast and lunch. All patients were initially given 200 mg of theophylline; changes in this dose were made based upon subjective responses to therapy. If at a subsequent return visit, patients reported ≥5% subjective improvement in overall smell function, they continued on this same dose of theophylline and were reevaluated after four to six months of continued treatment. Results from any subsequent return from these improved patients were not included in any subsequent data report. All subsequent comparisons between treated and untreated patients were made only between those patients continuing in the study compared to their own measurements obtained in the untreated state. If patients reported <5% subjective improvement, their theophylline dose was increased by 200 mg daily and they were scheduled for retesting at the study site after two to four months at this new dosage. For patients that reported <5% improvement, this sequence continued until patients reached 800 mg of theophylline, at which time the study was considered completed.
Patients returned for reevaluation after two to four months of treatment. Measurements of blood serum theophylline were measured by a fluorescence polarization assay (Abbott, Chicago, Ill.). At this time, subjective changes in smell function were measured independently (compared to patient's memory of previous normal smell function monitored by use of the patients' daily measurements) using the scale from −100-0-+100 previously described (vs). After independently recording their subjective responses, smell function was measured for all four odors with DT, RT, ME and H determined without recourse to prior measurements.
Since data for all measurements from each patient group (local or distant) on each dose level were combined mean and SEM for each measurement (DT, RT, ME, H) of smell function for each treatment group were calculated on this basis. Differences in measurements between before treatment and each treatment level were calculated and significance of differences estimated using Student t tests (values p<0.05 considered significant). […]

[1] = Type II hyposmia, oral 800 mg, after treatment (16 patients)
[2] = Type III hyposmia, oral 200 mg, after treatment (4 patients)
[3] = Type III hyposmia, oral 400 mg, after treatment (2 patients)
[4] = Type III hyposmia, oral 600 mg, after treatment (4 patients)
[5] = oral 800 mg, vs before treatment

## Cn1c(=O)c2[nH]cnc2n(C)c1=O [theophylline]
Type II hyposmia, oral 600 mg, after treatment (105 patients)
  recognition threshold (RT), thiophene: 8.1 ± 0.3^a BU
[1]
  detection threshold (DT), amyl acetate: 4.6 ± 0.7^a BU
  detection threshold (DT), nitrobenzene: 4.6 ± 0.9^a BU
  detection threshold (DT), pyridine: 4.7 ± 0.7^a BU
  detection threshold (DT), thiophene: 4.9 ± 0.7^a BU
  hedonic value (H), amyl acetate: 13 ± 9%
  hedonic value (H), nitrobenzene: 22 ± 11%
  hedonic value (H), pyridine: −31 ± 9%
  hedonic value (H), thiophene: −24 ± 8%
  magnitude estimation (ME), amyl acetate: 38 ± 6^e %
  magnitude estimation (ME), nitrobenzene: 42 ± 8^b %
  magnitude estimation (ME), pyridine: 43 ± 5^e %
  magnitude estimation (ME), thiophene: 33 ± 6%
  recognition threshold (RT), amyl acetate: 7.1 ± 0.6^a BU
  recognition threshold (RT), nitrobenzene: 5.1 ± 0.9^a BU
  recognition threshold (RT), pyridine: 7.1 ± 0.7^a BU
  recognition threshold (RT), thiophene: 8.0 ± 1.0 BU
[2]
  detection threshold (DT), amyl acetate: 2.8 ± 0.5 BU
  detection threshold (DT), nitrobenzene: 3.8 ± 0.7 BU
  detection threshold (DT), pyridine: 4.0 ± 0.6 BU
  detection threshold (DT), thiophene: 3.2 ± 0.8 BU
  hedonic value (H), amyl acetate: 14 ± 13%
  hedonic value (H), nitrobenzene: 13 ± 12%
  hedonic value (H), pyridine: −40 ± 13%
  hedonic value (H), thiophene: −40 ± 18%
  magnitude estimation (ME), amyl acetate: 32 ± 10%
  magnitude estimation (ME), nitrobenzene: 33 ± 8%
  magnitude estimation (ME), pyridine: 45 ± 11%
  magnitude estimation (ME), thiophene: 47 ± 15%
  recognition threshold (RT), amyl acetate: 5.2 ± 1.6 BU
  recognition threshold (RT), nitrobenzene: 5.0 ± 0.6 BU
  recognition threshold (RT), pyridine: 5.2 ± 0.5 BU
  recognition threshold (RT), thiophene: 3.8 ± 0.6 BU
[3]
  detection threshold (DT), amyl acetate: 2 BU
  detection threshold (DT), nitrobenzene: 2.5 BU
  detection threshold (DT), pyridine: 5.0 BU
  detection threshold (DT), thiophene: 1 BU
  hedonic value (H), amyl acetate: 75%
  hedonic value (H), nitrobenzene: −62%
  hedonic value (H), pyridine: −40%
  hedonic value (H), thiophene: −99%
  magnitude estimation (ME), amyl acetate: 75%
  magnitude estimation (ME), nitrobenzene: 79%
  magnitude estimation (ME), pyridine: 45%
  magnitude estimation (ME), thiophene: 99%
  recognition threshold (RT), amyl acetate: 3 BU
  recognition threshold (RT), nitrobenzene: 4.0 BU
  recognition threshold (RT), pyridine: 5.0 BU
  recognition threshold (RT), thiophene: 1 BU
[4]
  detection threshold (DT), amyl acetate: 2.5 ± 1.0 BU
  detection threshold (DT), nitrobenzene: 3.8 ± 0.9 BU
  detection threshold (DT), pyridine: 3.8 ± 0.9 BU
  detection threshold (DT), thiophene: 2.0 ± 1.0 BU
  hedonic value (H), amyl acetate: 28 ± 19%
  hedonic value (H), nitrobenzene: 12 ± 16%
  hedonic value (H), pyridine: −26 ± 22%
  hedonic value (H), thiophene: −35 ± 24%
  magnitude estimation (ME), amyl acetate: 31 ± 17%
  magnitude estimation (ME), nitrobenzene: 33 ± 13%
  magnitude estimation (ME), pyridine: 41 ± 15%
  magnitude estimation (ME), thiophene: 42 ± 20%
  recognition threshold (RT), amyl acetate: 4.8 ± 1.7 BU
  recognition threshold (RT), nitrobenzene: 4.5 ± 1.3 BU
  recognition threshold (RT), pyridine: 5.5 ± 0.9 BU
  recognition threshold (RT), thiophene: 3.8 ± 0.9 BU
Oral 200 mg (Table IV)
  decrease in H, pyridine: 2%
  decrease in H, thiophene: 2%
  increase in H, amyl acetate (more pleasant): 2%
  increase in H, nitrobenzene (more pleasant): 2%
  increase in ME, amyl acetate: 5%
  increase in ME, nitrobenzene: 5%
  increase in ME, pyridine: 6%
  increase in ME, thiophene: 5%
  total mean increase in ME, all odors: 5.1%
Oral 200 mg, vs before treatment, not statistically significant
  increase of H value, amyl acetate (more pleasant): 50%
Oral 400 mg (Table V)
  change in H, amyl acetate (decreased, became more pleasant): 1%
  change in H, nitrobenzene (decreased, became more pleasant): 4%
  change in H, pyridine (increases in H values): 9%
  change in H, thiophene (increases in H values): 7%
  increase in ME, amyl acetate: 8%
  increase in ME, nitrobenzene: 11%
  increase in ME, pyridine: 12%
  increase in ME, thiophene: 12%
Oral 400 mg, vs before treatment
  decrease of H value, thiophene (more unpleasant): 40%
Oral 400 mg, vs before treatment, not statistically significant
  increase of H value, nitrobenzene (more pleasant): 50%
Oral 600 mg (Table VI)
  total mean increase in ME, all odors: 6.9%
[5]
  decrease of H value, pyridine (more unpleasant): 55%
  decrease of H value, thiophene (more unpleasant): 37%
  increase of H value, amyl acetate (more pleasant): about 50%
  increase of H value, nitrobenzene (more pleasant): about 50%
